Source: patent US20230265116A1, “DEGRADATION OF (EGFR) BY CONJUGATION OF EGFR INHIBITORS WITH E3 LIGASE LIGAND AND METHODS OF USE” (BEIGENE, LTD., priority 2020, published 2023)
Like-named read-outs stand apart in the source and are kept apart here.

Assays:
Assay type in all cases: cell-based
[1] = target: T1, EGFR L858R/C797S (BaF3 LC cells) (Homo sapiens, UniProt P00533, C797S/L858R); assay: EGFR degradation HTRF assay, BaF3 LC cells
T1 construct: expressed in transfected cells; host or cells: BaF3
T1 sequence (P00533 25-1210 C797S/L858R): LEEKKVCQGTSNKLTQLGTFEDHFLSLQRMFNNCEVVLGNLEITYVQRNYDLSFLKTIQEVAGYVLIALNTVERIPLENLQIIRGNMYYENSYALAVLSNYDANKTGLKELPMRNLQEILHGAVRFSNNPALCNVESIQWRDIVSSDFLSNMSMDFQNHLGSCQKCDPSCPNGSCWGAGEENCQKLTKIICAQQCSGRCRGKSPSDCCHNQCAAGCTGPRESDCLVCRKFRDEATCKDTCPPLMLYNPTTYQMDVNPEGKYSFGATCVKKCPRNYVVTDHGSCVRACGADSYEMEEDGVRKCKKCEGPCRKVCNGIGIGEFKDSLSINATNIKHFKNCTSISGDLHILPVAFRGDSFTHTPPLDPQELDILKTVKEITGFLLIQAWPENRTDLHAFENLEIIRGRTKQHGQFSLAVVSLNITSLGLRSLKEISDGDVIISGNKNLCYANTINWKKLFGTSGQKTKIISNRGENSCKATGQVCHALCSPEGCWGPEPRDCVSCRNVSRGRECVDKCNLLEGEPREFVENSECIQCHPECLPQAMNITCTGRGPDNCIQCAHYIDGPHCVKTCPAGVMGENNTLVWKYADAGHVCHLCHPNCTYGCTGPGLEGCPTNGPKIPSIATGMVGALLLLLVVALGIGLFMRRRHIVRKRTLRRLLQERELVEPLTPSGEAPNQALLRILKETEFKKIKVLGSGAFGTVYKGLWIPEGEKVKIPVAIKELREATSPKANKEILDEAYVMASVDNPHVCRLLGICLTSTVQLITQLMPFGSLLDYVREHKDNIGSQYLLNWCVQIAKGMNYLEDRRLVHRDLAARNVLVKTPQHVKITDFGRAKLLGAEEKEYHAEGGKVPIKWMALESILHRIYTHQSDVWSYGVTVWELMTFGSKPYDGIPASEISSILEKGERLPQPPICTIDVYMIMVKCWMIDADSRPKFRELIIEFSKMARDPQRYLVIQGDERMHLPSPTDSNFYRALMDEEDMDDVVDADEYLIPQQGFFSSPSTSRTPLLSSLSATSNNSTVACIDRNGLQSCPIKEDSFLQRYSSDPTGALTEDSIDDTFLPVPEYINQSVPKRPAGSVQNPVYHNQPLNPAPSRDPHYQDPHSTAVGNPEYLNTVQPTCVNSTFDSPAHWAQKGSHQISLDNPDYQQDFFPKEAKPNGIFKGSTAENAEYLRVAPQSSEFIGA

[2] = target: T2, EGFR L858R/T790M/C797S (BaF3-LTC cells) (Homo sapiens, UniProt P00533, C797S/L858R/T790M); assay: EGFR degradation HTRF assay, BaF3-LTC cells
T2 construct: expressed in transfected cells; host or cells: BaF3
T2 sequence (P00533 25-1210 T790M/C797S/L858R): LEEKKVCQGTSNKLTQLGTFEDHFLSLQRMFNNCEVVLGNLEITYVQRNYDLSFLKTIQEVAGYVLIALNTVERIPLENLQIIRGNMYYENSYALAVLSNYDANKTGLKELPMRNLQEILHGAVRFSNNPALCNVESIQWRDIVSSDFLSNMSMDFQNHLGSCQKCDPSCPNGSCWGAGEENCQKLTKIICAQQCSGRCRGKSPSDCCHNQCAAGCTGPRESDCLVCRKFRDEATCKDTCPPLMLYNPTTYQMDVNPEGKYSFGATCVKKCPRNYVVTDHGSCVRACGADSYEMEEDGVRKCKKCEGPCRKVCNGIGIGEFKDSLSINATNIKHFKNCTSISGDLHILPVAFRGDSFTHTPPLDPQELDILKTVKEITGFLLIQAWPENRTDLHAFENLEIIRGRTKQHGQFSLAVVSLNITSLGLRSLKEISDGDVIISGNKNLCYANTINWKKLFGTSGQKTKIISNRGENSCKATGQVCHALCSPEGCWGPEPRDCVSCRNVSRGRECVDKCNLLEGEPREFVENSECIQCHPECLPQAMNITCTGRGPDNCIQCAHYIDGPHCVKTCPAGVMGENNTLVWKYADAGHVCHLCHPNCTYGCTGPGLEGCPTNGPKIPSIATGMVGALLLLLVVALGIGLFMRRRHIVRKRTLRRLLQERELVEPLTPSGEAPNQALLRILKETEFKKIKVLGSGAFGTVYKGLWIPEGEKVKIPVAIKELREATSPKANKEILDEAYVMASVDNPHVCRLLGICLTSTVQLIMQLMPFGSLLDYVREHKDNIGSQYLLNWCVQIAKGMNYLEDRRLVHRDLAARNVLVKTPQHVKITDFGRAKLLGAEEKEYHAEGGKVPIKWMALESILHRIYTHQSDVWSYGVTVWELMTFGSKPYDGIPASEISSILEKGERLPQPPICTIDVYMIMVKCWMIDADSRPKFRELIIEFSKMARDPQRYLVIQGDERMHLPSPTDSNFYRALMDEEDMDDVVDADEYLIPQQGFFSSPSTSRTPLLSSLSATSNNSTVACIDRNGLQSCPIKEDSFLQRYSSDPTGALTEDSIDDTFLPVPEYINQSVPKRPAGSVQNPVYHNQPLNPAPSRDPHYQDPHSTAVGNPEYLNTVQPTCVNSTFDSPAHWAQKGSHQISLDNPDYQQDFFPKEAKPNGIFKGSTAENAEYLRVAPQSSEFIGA
Summary of the method: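 EGFR remaining after a 16 h, 37 °C exposure (8 doses, 5-fold steps from 10 uM final, 0.2% DMSO) was quantified by HTRF antibodies in cell lysate. Percent inhibition relative to DMSO control was fitted by four-parameter logistic to give DC50; Dmax denotes maximal degradation.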

[3] = system: EGFR Del19/T790M/C797S (H1975-clone #28); assay: EGFR degradation HTRF assay, H1975-clone #28 DTC cells
Summary of the method: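 Lentiviral Del19/T790M/C797S (clone #28) or Del19/C797S (clone #23) EGFR expressed in H1975 with endogenous EGFR knocked out. Cells treated 16 h, 37 °C, 8 doses, 5-fold from 10 uM top, 0.2% DMSO; EGFR read by HTRF after lysis. Degradation % vs DMSO control; DC50, Dmax from four-parameter fit.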

[4] = system: EGFR Del19/C797S (H1975-clone #23); assay: EGFR degradation HTRF assay, H1975-clone #23 DC cells; details: for H1975 #23 DC Dmax (%): maximum percentage of degradation
Protocol: H1975-clone #28(Del19/T790M/C797S) and H1975-clone #23(Del19/C797S). EGFR-Del19/T790M/C797S and EGFR-Del19/C797S were stably expressed in H1975 cell lines by lentivirus-mediated over-expression, respectively. The EGFR over-expressed cells then underwent gene knockout, in which the EGFR targeting sgRNA was designed to only target the endogenous EGFR copies and preserve the exogenous EGFR copies. Followed by the gene knockout, the edited H1975 cells were seeded in 96 well plates at the concentration of 1 cell/well, cultured for about 2 weeks to allow single clones formation. The formed clones were screened by DNA sequencing and whole exon sequencing analysis for the desired edition. H1975-clone #28 and H1975-clone #23 were finally confirmed as homozygous Del19/T790M/C797S EGFR and Del19/C797S EGFR clones, respectively.
BaF3 WT(wild type), BaF3-LTC(L858R/T790M/C797S) and BaF3-DTC(Del19/T790M/C797S) cells are treated with compounds diluted in 0.2% DMSO cell culture medium and incubate for 16h, 37° C., 5% CO2, H1975-#36, H1975-#28, H1975-#23 and HCC827 cells are treated with compounds diluted in 0.2% DMSO cell culture medium on day 2, incubate for 16h, 37° C., 5% CO2.the final concentriation of compounds in all assay is start with 10 uM, 5-fold dilution, total 8 doses were included.
After 16h treatment, add HTRF lysis buffer to each well; seal the plate and incubate 1 hour at room temperature on a plate shaker; Once the cells are lysed, 16 μL of cell lysate are transferred to a PE 384-well HTRF detection plate; 4 μL of pre-mixed HTRF antibodies are added to each well; Cover the plate with a plate sealer, spin 1000 rpm for 1 min, Incubate overnight at room temperature; Read on BMG PheraStar with HTRF protocol (337 nm-665 nm-620 nm).
The inhibition (degradation) percentage of the compound was calculated by the following equation: Inhibition percentage of Compound=100-100×(Signal-low control)/(High control-low control), wherein signal=each test compound group
High control=Cell group with added DMSO and without compound, indicating microplate readings without EGFR degradation;
Dmax is the maximum percentage of inhibition (degradation).
The IC50 (DC50) value of a compound can be obtained by fitting the following equation
Y=Bottom+(TOP−Bottom)/(1+((IC50/X)^hillslope))
Wherein, X and Y are known values, and IC50, Hillslope, Top and Bottom are the parameters obtained by fitting with software. Y is the inhibition percentage (calculated from the equation), X is the concentration of the compound; IC50 is the concentration of the compound when the 50% inhibition is reached. The smaller the IC50 value is, the stronger the inhibitory ability of the compound is. Vice versa, the higher the IC50 value is, the weaker the inhibitory ability of the compound is; Hillslope represents the slope of the fitted curve, generally around 1*; Bottom represents the minimum value of the curve obtained by data fitting, which is generally 0%±20%; Top represents the maximum value of the curve obtained by data fitting, which is generally 100%±20%. The experimental data were fitted by calculating and analyzing with Dotmatics data analysis software.

[5] = BaF3 LC, 16h treatment; read-out: BaF3 LC DC50
[6] = BaF3-LTC cells; EGFR degradation, IC50 (DC50) from curve fit; read-out: DC50(nM) BaF3-LTC
[7] = H1975 # 28 DTC cells; EGFR degradation, IC50 (DC50) from curve fit; read-out: DC50(nM) H1975 # 28 DTC
[8] = H1975 # 28 DTC cells; maximum percentage of inhibition (degradation)
[9] = H1975 #23 DC, 16h treatment, read-out: H1975 #23 DC DC50
[10] = BaF3, read-out: BaF3 LC Dmax (%)
[11] = read-out: BaF3 LC DC50; BaF3 LC, 16h treatment
[12] = read-out: DC50(nM) BaF3-LTC; BaF3-LTC cells; EGFR degradation, IC50 (DC50) from curve fit
[13] = read-out: Dmax (%) BaF3-LTC, BaF3-LTC cells; maximum percentage of inhibition (degradation)
[14] = read-out: DC50(nM) H1975 # 28 DTC; H1975 # 28 DTC cells; EGFR degradation, IC50 (DC50) from curve fit
[15] = read-out: H1975 #23 DC DC50, 16h treatment

Structure (SMILES)	DC50 [1, 5]	DC50 [2, 6]	DC50 [3, 7]	Dmax (%) H1975 # 28 DTC [3, 8]	H1975 #23 DC Dmax (%) ([4]; 16h treatment)	DC50 [4, 9]	Dmax [1, 10]	DC50 [1, 11]	DC50 [2, 12]	Dmax [2, 13]	DC50 [3, 14]	DC50 [4, 15]	Dmax ([1]; BaF3 LC, 16h treatment, maximum percentage of degradation; read-out: BaF3 LC Dmax (%))	Dmax ([2]; BaF3-LTC cells; maximum percentage of inhibition (degradation); read-out: Dmax (%) BaF3-LTC)
CCOc1cc(N2CCC(N3CCN(CCc4cccc5c4oc(=O)n5C4CCC(=O)NC4=O)CC3)CC2)c(CC)cc1Nc1ncc(Br)c(Nc2cc(F)c3nc(CC)ccc3c2P(C)(C)=O)n1 (stereo not shown) [Example 493, 3-(7-(2-(4-(1-(4-((5-bromo-4-((5-(dimethylphosphoryl)-2-ethyl-8-fluoroquinolin-6-yl)amino)pyrimidin-2-yl)amino)-5-ethoxy-2-ethylphenyl)piperidin-4-yl)piperazin-1-yl)ethyl)-2-oxobenzo[d]oxazol-3 (2H)-yl)piperidine-2,6-dione]	24.3 nM	2.71 nM	0.588 nM	70.43%	63.11%	11.2 nM	–	–	–	–	–	–	–	–
CCOc1cc(N2CCC(N3CCN(CCc4ccc(F)c5c4oc(=O)n5C4CCC(=O)NC4=O)CC3)CC2)c(CC)cc1Nc1ncc(Br)c(Nc2ccc3nc(CC)ccc3c2P(C)(C)=O)n1 (stereo not shown) [Example 505, 3-(7-(2-(4-(1-(4-((5-bromo-4-((5-(dimethylphosphoryl)-2-ethylquinolin-6-yl)amino)pyrimidin-2-yl)amino)-5-ethoxy-2-ethylphenyl)piperidin-4-yl)piperazin-1-yl)ethyl)-4-fluoro-2-oxobenzo[d]oxazol-3(2H)-yl)piperidine-2,6-dione]	8.88 nM	9.43 nM	0.925 nM	77.6%	68.68%	3.17 nM	–	–	–	–	–	–	–	–
CCOc1cc(N2CCC(N3CCN(C(=O)C4CCN(c5cccc6c5oc(=O)n6C5CCC(=O)NC5=O)CC4)CC3)CC2)c(CC)cc1Nc1ncc(Br)c(Nc2ccc3nc(CC)ccc3c2P(C)(C)=O)n1 (stereo not shown) [Example 481, 3-(7-(4-(4-(1-(4-((5-bromo-4-((5-(dimethylphosphoryl)-2-ethylquinolin-6-yl)amino)pyrimidin-2-yl)amino)-5-ethoxy-2-ethylphenyl)piperidin-4-yl)piperazine-1-carbonyl)piperidin-1-yl)-2-oxobenzo[d]oxazol-3(2H)-yl)piperidine-2,6-dione]	–	–	–	77.65%	64.14%	–	91.9%	0.871 nM	5.27 nM	86.5%	2.14 nM	1.06 nM	–	–
CCc1ccc2c(P(C)(C)=O)c(Nc3nc(Nc4cc(CC)c(N5CCC(N6CCN(C(=O)C7CN(c8cccc9c8oc(=O)n9C8CCC(=O)NC8=O)C7)CC6)CC5)cc4OC)ncc3Br)ccc2n1 (stereo not shown) [Example 446, 3-(7-(3-(4-(1-(4-((5-bromo-4-((5-(dimethylphosphoryl)-2-ethylquinolin-6-yl)amino)pyrimidin-2-yl)amino)-2-ethyl-5-methoxyphenyl)piperidin-4-yl)piperazine-1-carbonyl)azetidin-1-yl)-2-oxobenzo[d]oxazol-3(2H)-yl)piperidine-2,6-dione]	–	–	–	80.48%	59.25%	–	81.7%	5.87 nM	3.89 nM	96.4%	0.726 nM	0.616 nM	–	–
CCOc1cc(N2CCC(N3CCN(CCc4cccc5c4oc(=O)n5C4CCC(=O)NC4=O)CC3)CC2)c(CC)cc1Nc1ncc(Br)c(Nc2ccc3nc(CC)ccc3c2P(C)(C)=O)n1 (stereo not shown) [Example 473, 3-(7-(2-(4-(1-(4-((5-bromo-4-((5-(dimethylphosphoryl)-2-ethylquinolin-6-yl)amino)pyrimidin-2-yl)amino)-5-ethoxy-2-ethylphenyl)piperidin-4-yl)piperazin-1-yl)ethyl)-2-oxobenzo[d]oxazol-3(2H)-yl)piperidine-2,6-dione]	73.4 nM	9.51 nM	0.616 nM	83.08%	82.45%	12.8 nM	–	–	–	–	–	–	–	–
CCc1cc(Nc2ncc(Br)c(Nc3ccc4c(=O)n(C5CC5)ncc4c3P(C)(C)=O)n2)c(OC)cc1N1CCC(N2CCN(CCc3cc(F)c(C4CCC(=O)NC4=O)c(F)c3)CC2)CC1 (stereo not shown) [Example 521, 3-(4-(2-(4-(1-(4-((5-bromo-4-((2-cyclopropyl-5-(dimethylphosphoryl)-1-oxo-1,2-dihydrophthalazin-6-yl)amino)pyrimidin-2-yl)amino)-2-ethyl-5-methoxyphenyl)piperidin-4-yl)piperazin-1-yl)ethyl)-2,6-difluorophenyl)piperidine-2,6-dione]	51.6 nM	17 nM	1.01 nM	80.24%	75.56%	5.9 nM	–	–	–	–	–	–	74.6%	87.4%
CCc1ccc2c(P(C)(C)=O)c(Nc3nc(Nc4cc(CC)c(N5CCC(N6CCN(C(=O)[C@@H]7CCN(c8cc(F)c([C@H]9CCC(=O)NC9=O)c(F)c8)C7)CC6)CC5)cc4OC)ncc3Br)ccc2n1 [Example 489, (R)-3-(4-((R)-3-(4-(1-(4-((5-bromo-4-((5-(dimethylphosphoryl)-2-ethylquinolin-6-yl)amino)pyrimidin-2-yl)amino)-2-ethyl-5-methoxyphenyl)piperidin-4-yl)piperazine-1-carbonyl)pyrrolidin-1-yl)-2,6-difluorophenyl)piperidine-2,6-dione]	19.7 nM	–	1.37 nM	82.72%	59.94%	4.72 nM	–	–	–	–	–	–	–	–
CCc1cc(Nc2ncc(Br)c(Nc3ccc4nc(C)ccc4c3P(C)(C)=O)n2)c(OC)cc1N1CCC(N2CCN(C(=O)[C@@H]3CCN(c4cc(F)c([C@H]5CCC(=O)NC5=O)c(F)c4)C3)CC2)CC1 [Example 750, (R)-3-(4-((R)-3-(4-(1-(4-((5-bromo-4-((5-(dimethylphosphoryl)-2-methylquinolin-6-yl)amino)pyrimidin-2-yl)amino)-2-ethyl-5-methoxyphenyl)piperidin-4-yl)piperazine-1-carbonyl)pyrrolidin-1-yl)-2,6-difluorophenyl)piperidine-2,6-dione]	26.1 nM	–	1.17 nM	84.8%	74.02%	6.52 nM	–	–	–	–	–	–	–	–
